# In US20250186442A1, “Obicetrapib and Ezetimibe Combination Treatment and Fixed Dose Pharmaceutical Compositions” (NewAmsterdam Pharma B.V., priority 2022, published 2025):
# Legend:
# [1] = Kinetic solubility in FeSSIF (pH 5.0) at 37° C.; type: physicochemical; conditions: FeSSIF pH 5.0, 37° C., as obicetrapib free acid
# Description: (§1) The amorphous form has a higher kinetic solubility and dissolution rate than the crystalline form (and by extension obicetrapib itself). Both crystalline and amorphous obicetrapib hemicalcium kinetic solubility determinations were made in biorelevant media at different pHs, namely at about 5.0 (FeSSIF conditions) and at pH of about 6.5 (FaSSIF) conditions as set forth in Example 11.28.
# The concentrations in Table W are those of obicetrapib (i.e., the free acid).
# (§2) The solids were magnetically stirred at 600 RPM in a shaker bath and samples were drawn with a 1.0 ml syringe at T=15 mins, 30 mins, 60 mins, 90 mins and 120 mins. The solubility was measured using HPLC method provided by the client. The compound was added to 4.0 ml glass vials at approximately 20.0 mg/ml. Samples were agitated with a vortex mixer for about 5 minutes to ensure the presence of undissolved excess powder. The sample collected at each time point was centrifuged at 1200 RPM, filtered with 0.45 μm Polytetrafluoroethylene (PTFE) filters and diluted with methanol before HPLC analysis. In order to minimize the effect of potential analyte adsorption on the filter, the initial 0.5 mL of supernatant passing through the filter was discarded prior to collecting sample for HPLC analysis.
# [2] = Kinetic solubility in FaSSIF (pH 6.5) at 37° C.; type: physicochemical; conditions: FaSSIF pH 6.5, 37° C., as obicetrapib free acid
# Description: as §1
# The concentrations in Table X are those of obicetrapib (i.e., the free acid).
# as §2
# [3] = ROSE2 phase 2b clinical trial - safety and tolerability (adverse events); type: in vivo, human; conditions: Safety Population
# Method: (§3) The exploratory objectives of this study include the following: • To evaluate the effect of obicetrapib 10 mg+ezetimibe 10 mg combination therapy and obicetrapib 10 mg monotherapy, when used as an adjunct to high-intensity statin therapy, on non-high-density lipoprotein cholesterol (non-HDL-C), very low-density lipoprotein cholesterol (VLDL-C), HDL-C, TG, ApoE, Lp(a), and HDL-ApoE at Day 84; • To evaluate the effect of obicetrapib 10 mg+ezetimibe 10 mg combination therapy and obicetrapib 10 mg monotherapy, when used as an adjunct to high-intensity statin therapy, on the proportion of participants achieving predefined LDL-C targets at Day 84; • To assess the mean trough plasma levels of obicetrapib 10 mg+ezetimibe 10 mg combination therapy and obicetrapib 10 mg monotherapy at steady state on Days 28, 84, and 112; and • To evaluate the safety and tolerability profiles of obicetrapib 10 mg+ezetimibe 10 mg combination therapy and obicetrapib 10 mg monotherapy, when used as an adjunct to high-intensity statin therapy, assessed by clinical laboratory values and incidence of AEs.
# The safety and tolerability profile of obicetrapib 10 mg, both in combination with ezetimibe 10 mg and as monotherapy, will be assessed by clinical laboratory assessments (chemistry and hematology), vital signs, physical examinations, and the incidence of AEs.
# An AE can therefore be any unfavorable and/or unintended sign (including an abnormal laboratory finding), symptom, or disease temporally associated with the use of an investigational medicinal product, whether or not related to the investigational medicinal product. All AEs, including observed or volunteered problems, complaints, or symptoms, are to be recorded on the appropriate eCRF.
# AEs, which include clinical laboratory assessment variables, will be monitored and documented from the time of first dose of study treatment until completion of Visit 5. Participants should be instructed to report any AE that they experience to the Investigator, whether or not they think the event is due to study drug. Beginning at the date of the first dose of study treatment, Investigators should make an assessment for AEs at each visit and record the event on the appropriate AE eCRF.
# The Investigator will assess the severity (intensity) of each AE as mild, moderate, or severe, and will also categorize each AE as to its potential relationship to study drug using the categories of yes or no.
# • Mild—An event that is easily tolerated and generally not interfering with normal daily activities. • Moderate—An event that is sufficiently discomforting to interfere with normal daily activities. • Severe—An event that is incapacitating with inability to work or perform normal daily activities.
# An AE or adverse reaction is considered serious if, in the view of either the Investigator or Sponsor, it results in any of the following outcomes: • Death; • A life-threatening AE;
# The Safety Population will include all participants who receive at least 1 dose of any study drug. Treatment classification will be based on the actual treatment received. The Safety Population will be the primary population used for the safety analyses.
# [4] = tested on: Lp(a); test: ROSE2 phase 2b clinical trial - Lp(a); type: in vivo, human; conditions: Exploratory Population
# Method: as §3
# This study will be a placebo-controlled, double-blind, randomized, Phase 2 study to evaluate the efficacy, safety, and tolerability of obicetrapib 10 mg, both in combination with ezetimibe 10 mg and as monotherapy, as an adjunct to high-intensity statin therapy. This study will take place at approximately 20 sites in the United States.
# Up to 2 weeks after the Screening Visit, participants will return to the site on Day 1 (Visit 2) and confirm study eligibility before being randomized and beginning treatment. Approximately 114 eligible participants (38 participants per treatment group) will be randomized in a 1:1:1 ratio to 1 of the following treatment groups: • Combination therapy: Obicetrapib 10 mg+ezetimibe 10 mg (administered as one 10 mg obicetrapib tablet and one 10 mg ezetimibe capsule); • Obicetrapib monotherapy: Obicetrapib 10 mg (administered as one 10 mg obicetrapib tablet and 1 placebo capsule); or • Placebo (administered as 1 placebo tablet and 1 placebo capsule).
# The exploratory efficacy endpoints include the following: • Percent change from Day 1 to Day 84 in non-HDL-C, VLDL-C, HDL-C, TG, ApoE, Lp(a), and HDL-ApoE for the obicetrapib 10 mg+ezetimibe 10 mg combination treatment group compared with the placebo group and for the obicetrapib 10 mg monotherapy treatment group compared with the placebo group; and • Proportion of participants at Day 84 that achieve LDL-C<2.6 mmol/L (<100 mg/dL), LDL-C<1.8 mmol/L (<70 mg/dL), and LDL-C<1.3 mmol/L (<50 mg/dL) for the obicetrapib 10 mg+ezetimibe 10 mg combination treatment group compared with the placebo group and for the obicetrapib 10 mg monotherapy treatment group compared with the placebo group.
# Blood samples for the lipid profile must be obtained under fasting conditions (ie, after the participant has fasted for approximately 10 hours). For the purposes of this study, fasting will be defined as nothing by mouth except water and any essential medications. If a participant is not fasting, the Investigator should reschedule the visit as soon as possible. LDL-C level will be calculated using the Friedewald equation unless TG≥400 mg/dL or LDL-C≤50 mg/dL; in both cases, LDL-C level will be measured directly by preparative ultracentrifugation, also referred to as beta quantification. Additionally, LDL-C will be measured by preparative ultracentrifugation, also referred to as beta quantification, at baseline (Visit 2) and at the end of the 12-week Treatment Period (Visit 4) for all participants.
# The Modified ITT (mITT) Population will include all participants in the ITT Population who receive at least 1 dose of any study drug and have a baseline value for the LDL-C assessment. […]
smiles,measurement,setting,value
CCOC(=O)N1c2ccc(C(F)(F)F)cc2[C@@H](N(Cc2cc(C(F)(F)F)cc(C(F)(F)F)c2)c2ncc(OCCCC(=O)[O-])cn2)C[C@H]1CC.CCOC(=O)N1c2ccc(C(F)(F)F)cc2[C@@H](N(Cc2cc(C(F)(F)F)cc(C(F)(F)F)c2)c2ncc(OCCCC(=O)[O-])cn2)C[C@H]1CC.[Ca+2] [Amorphous obicetrapib hemicalcium Batch #2],Concentration in Solution,[1]; 15 mins,502 µg/mL
same,Concentration in Solution,[1]; 30 mins,618 µg/mL
same,Concentration in Solution,[1]; 60 mins,628 µg/mL
same,Concentration in Solution,[1]; 90 mins,658 µg/mL
same,Concentration in Solution,[1]; 120 mins,642 µg/mL
same,Concentration in Solution,[2]; 15 mins,90 µg/mL
same,Concentration in Solution,[2]; 30 mins,140 µg/mL
same,Concentration in Solution,[2]; 60 mins,229 µg/mL
same,Concentration in Solution,[2]; 90 mins,293 µg/mL
same,Concentration in Solution,[2]; 120 mins,387 µg/mL
CCOC(=O)N1c2ccc(C(F)(F)F)cc2[C@@H](N(Cc2cc(C(F)(F)F)cc(C(F)(F)F)c2)c2ncc(OCCCC(=O)[O-])cn2)C[C@H]1CC.CCOC(=O)N1c2ccc(C(F)(F)F)cc2[C@@H](N(Cc2cc(C(F)(F)F)cc(C(F)(F)F)c2)c2ncc(OCCCC(=O)[O-])cn2)C[C@H]1CC.[Ca+2] [Amorphous obicetrapib hemicalcium Batch #1],Concentration in Solution,[1]; 15 mins,520 µg/mL
same,Concentration in Solution,[1]; 30 mins,661 µg/mL
same,Concentration in Solution,[1]; 60 mins,675 µg/mL
same,Concentration in Solution,[1]; 90 mins,696 µg/mL
same,Concentration in Solution,[1]; 120 mins,675 µg/mL
same,Concentration in Solution,[2]; 15 mins,60 µg/mL
same,Concentration in Solution,[2]; 30 mins,99 µg/mL
same,Concentration in Solution,[2]; 60 mins,163 µg/mL
same,Concentration in Solution,[2]; 90 mins,201 µg/mL
same,Concentration in Solution,[2]; 120 mins,244 µg/mL
CCOC(=O)N1c2ccc(C(F)(F)F)cc2[C@@H](N(Cc2cc(C(F)(F)F)cc(C(F)(F)F)c2)c2ncc(OCCCC(=O)O)cn2)C[C@H]1CC [Obicetrapib 10 mg],"Any TEAEs by maximum severity: Mild, (%)",[3]; (%),(20.5) %
same,"Any TEAEs by maximum severity: Moderate, (%)",[3]; (%),(7.7) %
same,"Any TEAEs by maximum severity: Severe, (%)",[3]; (%),(10.3) %
same,"Any TEAEs leading to death, (%)",[3]; (%),(0.0) %
same,"Any serious TEAEs (TESAEs), (%)",[3]; (%),(5.1) %
same,"Any study drug-related TEAEs by maximum severity: Mild, (%)",[3]; (%),(10.3) %
same,"Any study drug-related TEAEs by maximum severity: Moderate, (%)",[3]; (%),(5.1) %
same,"Any study drug-related TEAEs by maximum severity: Severe, (%)",[3]; (%),(5.1) %
same,"Any study drug-related TEAEs leading to discontinuation of study drug, (%)",[3]; (%),(5.1) %
same,"Any study drug-related TEAEs, (%)",[3]; (%),(2.6) %
same,"Any study drug-related TESAEs, (%)",[3]; (%),(2.6) %
same,"Any treatment-emergent AEs (TEAEs), (%)",[3]; (%),(20.5) %
same,"Any TEAEs leading to discontinuation of study drug, (%)","[3]; (%), first line with this label (r25)",(0.0) %
same,"Any TEAEs leading to discontinuation of study drug, (%)","[3]; (%), last line of the table (r40)",(0.0) %
same,"Any TEAEs by maximum severity: Mild, e",[3]; column e,20
same,"Any TEAEs leading to death, e",[3]; column e,0
same,"Any serious TEAEs (TESAEs), e",[3]; column e,2
same,"Any study drug-related TEAEs by maximum severity: Mild, e",[3]; column e,4
same,"Any study drug-related TEAEs leading to discontinuation of study drug, e",[3]; column e,5
same,"Any study drug-related TESAEs, e",[3]; column e,1
same,"Any treatment-emergent AEs (TEAEs), e",[3]; column e,20
same,"Any TEAEs leading to discontinuation of study drug, e","[3]; column e, last line of the table (r40)",0
same,"Lp(a) Day 84, Mean",[4]; Day 84,74.75 nmol/L
same,"Lp(a) Day 84, Median",[4]; Day 84,20.85 nmol/L
same,Lp(a) Day 84 Maximum,[4]; Day 84,327.7 nmol/L
same,Lp(a) Day 84 Minimum,[4]; Day 84,2.8 nmol/L
same,"Lp(a) Change from Baseline to Day 84, Mean",[4],-27.66 nmol/L
same,"Lp(a) Change from Baseline to Day 84, Median",[4],-10.95 nmol/L
same,Lp(a) Change from Baseline to Day 84 Maximum,[4],3.0 nmol/L
same,Lp(a) Change from Baseline to Day 84 Minimum,[4],-148.8 nmol/L
same,Lp(a) Percent Change from Baseline to Day 84 (%) Maximum,[4],103.4%
same,Lp(a) Percent Change from Baseline to Day 84 (%) Minimum,[4],−84.6%
same,"Lp(a) Percent Change from Baseline to Day 84 (%), Mean",[4],−24.44%
same,"Lp(a) Percent Change from Baseline to Day 84 (%), Median",[4],−22.75%
